How the values were obtained:
[1] = test system: oxaliplatin-induced peripheral neuropathy model mice; assay: Oxaliplatin-induced mouse neuropathic pain model (Example 7): mechanical allodynia, Uralyt and sodium bicarbonate; type: in vivo, male C57BL/6J mice; conditions: 0.75 g/kg sodium bicarbonate oral twice per day for 13 days; OXP 3 mg/kg i.p. single dose; FIG. 14: day 10
Protocol: (§1) For the alkalinizing agent, the same test substance as Example 1 and sodium bicarbonate (in this description also referred to as baking soda, manufactured by Tokyo Chemical Industry Co., Ltd., purity: at least 99.0%) were used. Following weighing of the required amount of the sodium bicarbonate, sufficient injection water was added to dissolve the sodium bicarbonate and prepare a solution of the target concentration at the time of use.
(§2) In the Sham group and the control group, the injection water used as the solvent for the alkalinizing agent was used.
(§3) The same type of animals as Example 1 were used. Specifically, six-week old male C57BL/6J mice (from Japan SLC, Inc.) were used. The animals were provided with an approximately one-week acclimatization period, and only healthy individuals were then selected for testing. […]
(§4) Grouping was conducted using the pain-related scores evaluated on the day prior to starting the test (the day prior to test substance administration) as a reference, and specifically, by dividing the individuals into each of the groups to ensure the same averaged pain-related score for each group. […]
Following the OXP administration, the level of pain was evaluated over time. […] A pain evaluation was also conducted on a day prior to the start of alkalinizing agent administration, and this evaluation was recorded as the Pre value. […]

[2] = test system: paclitaxel-induced peripheral neuropathy model mice; assay: Paclitaxel-induced mouse neuropathic pain model (Example 8): mechanical allodynia, Uralyt and sodium bicarbonate; type: in vivo, male C57BL/6J mice; conditions: 0.75 g/kg sodium bicarbonate oral twice per day for 17 days; PTX 5 mg/kg i.p. single dose; FIG. 16: day 14
Protocol: as §1, §2, §3, §4
Following the PTX administration, the level of pain was evaluated over time. […] A pain evaluation was also conducted on a day prior to the start of alkalinizing agent administration, and this evaluation was recorded as the Pre value. […]

## O=C([O-])O.[Na+] [sodium bicarbonate]
[1]
  onset of mechanical allodynia (pain-related score): suppressed the onset of mechanical allodynia, but the effect was smaller than that observed for the Uralyt administration group
[2]
  onset of mechanical allodynia (pain-related score): suppressed the onset of mechanical allodynia, but the effect was smaller than that observed for the Uralyt administration group

From patent publication US20260224516A1, “PHARMACEUTICAL FOR TREATING OR PREVENTING CHEMOTHERAPY-INDUCED PERIPHERAL NEUROPATHY” (NIPPON CHEMIPHAR CO., LTD., priority 2023, published 2026)
